Data as given in US20030109448A1, “Methods of promoting uptake and nuclear accumulation of polyamides in eukaryotic cells” (priority 2001, published 2003).
Entries after “also recorded” stand apart in the source; their conditions may differ.

Tests used:
[1] = tested on: HCT116 human colon cancer cells; test: Intracellular distribution of fluorescent-labeled polyamides by fluorescence microscopy; type: cell-based; conditions: HCT116, overnight at 37° C.
Procedure: Previously established low passage number human colon cancer HCT116 cells were cultured as monolayers and maintained at 37° C. in a humidified incubator with 5% CO2 in buffered medium consisting of RPMI 1640 (GIBCO, Life Technologies, Rockville, Md.) supplemented with 2 mM L-glutamine, 10% fetal bovine serum (GIBCO), 100 Units/ml Penicillin-Streptomycin and 25 μg/ml Gentamicin. Previously established low passage number human rheumatoid synovial fibroblasts (RSFs) were cultured in DMEM (GIBCO 11995-040) supplemented with 15% FBS, 1% glutamine, and 50 µg/ml Gentamycin.
HCT116 cells or RSF cells (8×10^5) were plated on 25-mm round glass coverslips in 30-mm wells and incubated for 24 hr to allow cells to adhere. […]
Live wet mounted cells were examined and photographed using an Olympus AX70 Microscope equipped with fluorescence optics and a Sony 3CCD color video camera. DAPI was detected using a bandpass 405±20 nm excitation filter, a 420 nm dichroic beam splitter, and a ≧450 emission filter (DAPI filter set). BODIPY and fluorescein conjugated polyamides were selectively detected using a bandpass 485±11 nm excitation filter, a 505 nm dichroic beam splitter, and a 530±15 nm emission filter (fluorescein filter set). Organelle-specific probes were detected using a 546+/−5 nm excitation filter, a 570 nm dichroic beam splitter and a 590 nm longpass emission filter (Rhodamine filter set). […]

RSF cells = test: Effect of P-gp inhibitors on intracellular distribution of Compound 1; type: cell-based, human

With “Im-Im-Py-Py-γ-Py-Py-Py-Py-β-Ta-FITC [Compound 2]” the fluorescent-filled vesicles [1] was “absent” and the “nuclear fluorescence (nuclear localization)” value [1] was “nuclei are brightly stained; also recorded: observed in the nuclei of the cells”.

In the case of `COc1ccc(CCN(C)CCCC(C#N)(c2ccc(OC)c(OC)c2)C(C)C)cc1OC` (stereo not shown) [verapamil], the “effect on intracellular distribution of Compound 1” value (RSF cells) is reported as “dramatic reduction in cytoplasmic fluorescence accompanied by a re-distribution of Compound 1 to the nucleus” and the “location of Compound 1 green fluorescence in presence of inhibitor” value (RSF cells) is reported as “observed in the nuclei in the presence of verapamil”.
